Patent EP0688431B1, “METHOD FOR SCREENING CATALYTIC NON-ENZYME POLYPEPTIDES AND PROTEINS” (YEDA RESEARCH AND DEVELOPMENT CO. LTD., priority 1993, dated 1994)

Molecular target: antibody D2.3
Test: Binding of the product to the catalytic antibody
Design: species or system Balb/c mice
Settings: binding to antibody D2.3

O=[N+]([O-])c1ccc(CO)cc1 [p-nitrobenzyl alcohol]
Kd: 52 µM
